Assay results published in patent US20020037858A1, “Pharmaceutical compositions comprising moexipril magnesium” (priority 2000, published 2002).

Test: Stability of moexipril magnesium salt in solid compositions
Assay type: physicochemical
Details: solid compositions without an alkaline stabilizing compound in the final composition

Structure (SMILES): CCOC(=O)[C@H](CCc1ccccc1)N[C@@H](C)C(=O)N1Cc2cc(OC)c(OC)cc2C[C@H]1C(=O)O.[Mg] [moexipril magnesium]
- stability of the salt: sufficiently stable to enable stable solid compositions
